Here are results for 67 sequences from paper PMC12102759 (Protein Science : A Publication of the Protein Society, 2025).

Like-named read-outs stand apart in the source and are kept apart here.

The test system of this test is G3BP1 NFT2. The class given is binding, human. The settings on record: library DMS-CoV, bait G3BP1 NFT2, prey N, listed as aa = residue placed at this position, column sums to 1.

Take “APRITFGGPSDSTGSN S12G (APRITFGGPSDGTGSN)”: for the setting “peptide APRITFGGPSDSTGSN”, the “DMS PSSM value, S (position 12)” value came to 0.0009188.

On to RNAPRITFGGPSDSTG G9F (RNAPRITFFGPSDSTG), for which, for the setting “peptide RNAPRITFGGPSDSTG”, the “DMS PSSM value, G (position 9)” value is recorded as 0.

APRITFGGPSDSTGSN G8D (APRITFGDPSDSTGSN): the “DMS PSSM value, G (position 8)” value (peptide APRITFGGPSDSTGSN) was 0.

For the sequence “RNAPRITFGGPSDSTG T15L (RNAPRITFGGPSDSLG)”, the “DMS PSSM value, T (position 15)” value (peptide RNAPRITFGGPSDSTG) was found to be 0.

Regarding “APRITFGGPSDSTGSN G14P (APRITFGGPSDSTPSN)”, the “DMS PSSM value, G (position 14)” value (peptide APRITFGGPSDSTGSN) is given as 0.002211.

Consider “RNAPRITFGGPSDSTG S12T (RNAPRITFGGPTDSTG)”, for which the “DMS PSSM value, S (position 12)” value (peptide RNAPRITFGGPSDSTG) is listed as 0.

For the sequence RNAPRITFGGPSDSTG F8D (RNAPRITDGGPSDSTG), under “peptide RNAPRITFGGPSDSTG”, the “DMS PSSM value, F (position 8)” value is given as 0.

“APRITFGGPSDSTGSN G14Q (APRITFGGPSDSTQSN)”: where the note is “peptide APRITFGGPSDSTGSN”, the “DMS PSSM value, G (position 14)” value was found to be 0.3116.

Turning to “RNAPRITFGGPSDSTG S14P (RNAPRITFGGPSDPTG)”, the “DMS PSSM value, S (position 14)” value (peptide RNAPRITFGGPSDSTG) was 0.

For APRITFGGPSDSTGSN G7R (APRITFRGPSDSTGSN), the “DMS PSSM value, G (position 7)” value (peptide APRITFGGPSDSTGSN) stood at 0.

With APRITFGGPSDSTGSN G7M (APRITFMGPSDSTGSN), the “DMS PSSM value, G (position 7)” value (peptide APRITFGGPSDSTGSN) was determined as 0.

Turning to APRITFGGPSDSTGSN F6W (APRITWGGPSDSTGSN), the “DMS PSSM value, F (position 6)” value (peptide APRITFGGPSDSTGSN) is recorded as 0.

With “APRITFGGPSDSTGSN S15M (APRITFGGPSDSTGMN)”, for the setting “peptide APRITFGGPSDSTGSN”, the “DMS PSSM value, S (position 15)” value was determined as 0.006693.

As to “RNAPRITFGGPSDSTG S12Y (RNAPRITFGGPYDSTG)”, where the note is “peptide RNAPRITFGGPSDSTG”, the “DMS PSSM value, S (position 12)” value worked out at 0.

As for APRITFGGPSDSTGSN I4L (APRLTFGGPSDSTGSN), under “peptide APRITFGGPSDSTGSN”, the “DMS PSSM value, I (position 4)” value is 0.

With RNAPRITFGGPSDSTG G9Y (RNAPRITFYGPSDSTG), the “DMS PSSM value, G (position 9)” value (peptide RNAPRITFGGPSDSTG) stood at 0.

Take “APRITFGGPSDSTGSN S15R (APRITFGGPSDSTGRN)”: under “peptide APRITFGGPSDSTGSN”, the “DMS PSSM value, S (position 15)” value was determined as 0.

For RNAPRITFGGPSDSTG F8M (RNAPRITMGGPSDSTG), for the setting “peptide RNAPRITFGGPSDSTG”, the “DMS PSSM value, F (position 8)” value is listed as 0.

For “RNAPRITFGGPSDSTG P11Y (RNAPRITFGGYSDSTG)”, for the setting “peptide RNAPRITFGGPSDSTG”, the “DMS PSSM value, P (position 11)” value is 0.

Turning to “RNAPRITFGGPSDSTG G10R (RNAPRITFGRPSDSTG)”, the “DMS PSSM value, G (position 10)” value (peptide RNAPRITFGGPSDSTG) stood at 0.

Consider APRITFGGPSDSTGSN R3L (APLITFGGPSDSTGSN), for which the “DMS PSSM value, R (position 3)” value (peptide APRITFGGPSDSTGSN) is reported as 0.2826.

In the case of APRITFGGPSDSTGSN F6R (APRITRGGPSDSTGSN), the “DMS PSSM value, F (position 6)” value (peptide APRITFGGPSDSTGSN) came to 0.

RNAPRITFGGPSDSTG P4I (RNAIRITFGGPSDSTG): the “DMS PSSM value, P (position 4)” value (peptide RNAPRITFGGPSDSTG) is listed as 0.

Consider “RNAPRITFGGPSDSTG G10V (RNAPRITFGVPSDSTG)”, for which the “DMS PSSM value, G (position 10)” value (peptide RNAPRITFGGPSDSTG) was 0.

For APRITFGGPSDSTGSN G8T (APRITFGTPSDSTGSN), the “DMS PSSM value, G (position 8)” value (peptide APRITFGGPSDSTGSN) is 0.001267.

On to APRITFGGPSDSTGSN I4W (APRWTFGGPSDSTGSN), for which the “DMS PSSM value, I (position 4)” value (peptide APRITFGGPSDSTGSN) amounted to 0.

As for “RNAPRITFGGPSDSTG D13N (RNAPRITFGGPSNSTG)”, the “DMS PSSM value, D (position 13)” value (peptide RNAPRITFGGPSDSTG) worked out at 0.

Take RNAPRITFGGPSDSTG N2S (RSAPRITFGGPSDSTG): under “peptide RNAPRITFGGPSDSTG”, the “DMS PSSM value, N (position 2)” value is on record as 0.05861.

Take APRITFGGPSDSTGSN A1P (PPRITFGGPSDSTGSN): the “DMS PSSM value, A (position 1)” value (peptide APRITFGGPSDSTGSN) came to 0.006009.

For RNAPRITFGGPSDSTG R5A (RNAPAITFGGPSDSTG), the “DMS PSSM value, R (position 5)” value (peptide RNAPRITFGGPSDSTG) was 0.0005421.

In the case of “RNAPRITFGGPSDSTG G10D (RNAPRITFGDPSDSTG)”, the “DMS PSSM value, G (position 10)” value (peptide RNAPRITFGGPSDSTG) was found to be 0.

APRITFGGPSDSTGSN T5N (APRINFGGPSDSTGSN): under “peptide APRITFGGPSDSTGSN”, the “DMS PSSM value, T (position 5)” value was 0.

Regarding RNAPRITFGGPSDSTG A3F (RNFPRITFGGPSDSTG), for the setting “peptide RNAPRITFGGPSDSTG”, the “DMS PSSM value, A (position 3)” value was determined as 0.

As for APRITFGGPSDSTGSN P2Y (AYRITFGGPSDSTGSN), the “DMS PSSM value, P (position 2)” value (peptide APRITFGGPSDSTGSN) is 0.

As to RNAPRITFGGPSDSTG A3D (RNDPRITFGGPSDSTG), the “DMS PSSM value, A (position 3)” value (peptide RNAPRITFGGPSDSTG) was 0.1526.

In the case of RNAPRITFGGPSDSTG P4R (RNARRITFGGPSDSTG), the “DMS PSSM value, P (position 4)” value (peptide RNAPRITFGGPSDSTG) stood at 0.

For APRITFGGPSDSTGSN A1L (LPRITFGGPSDSTGSN), the “DMS PSSM value, A (position 1)” value (peptide APRITFGGPSDSTGSN) was determined as 0.0004523.

For APRITFGGPSDSTGSN A1T (TPRITFGGPSDSTGSN), the “DMS PSSM value, A (position 1)” value (peptide APRITFGGPSDSTGSN) is listed as 0.07786.

Consider RNAPRITFGGPSDSTG F8Q (RNAPRITQGGPSDSTG), for which the “DMS PSSM value, F (position 8)” value (peptide RNAPRITFGGPSDSTG) is listed as 0.

With APRITFGGPSDSTGSN G7Q (APRITFQGPSDSTGSN), the “DMS PSSM value, G (position 7)” value (peptide APRITFGGPSDSTGSN) amounted to 0.005359.

In the case of “RNAPRITFGGPSDSTG S14A (RNAPRITFGGPSDATG)”, where the note is “peptide RNAPRITFGGPSDSTG”, the “DMS PSSM value, S (position 14)” value came to 0.

Consider APRITFGGPSDSTGSN P9L (APRITFGGLSDSTGSN), for which, where the note is “peptide APRITFGGPSDSTGSN”, the “DMS PSSM value, P (position 9)” value was 0.

For APRITFGGPSDSTGSN P9A (APRITFGGASDSTGSN), under “peptide APRITFGGPSDSTGSN”, the “DMS PSSM value, P (position 9)” value is given as 0.001999.

As to APRITFGGPSDSTGSN P2R (ARRITFGGPSDSTGSN), for the setting “peptide APRITFGGPSDSTGSN”, the “DMS PSSM value, P (position 2)” value was 0.

Regarding RNAPRITFGGPSDSTG A3Q (RNQPRITFGGPSDSTG), the “DMS PSSM value, A (position 3)” value (peptide RNAPRITFGGPSDSTG) was 0.

With “RNAPRITFGGPSDSTG D13G (RNAPRITFGGPSGSTG)”, the “DMS PSSM value, D (position 13)” value (peptide RNAPRITFGGPSDSTG) was found to be 0.

For APRITFGGPSDSTGSN I4T (APRTTFGGPSDSTGSN), the “DMS PSSM value, I (position 4)” value (peptide APRITFGGPSDSTGSN) was found to be 0.

As for “APRITFGGPSDSTGSN S10L (APRITFGGPLDSTGSN)”, the “DMS PSSM value, S (position 10)” value (peptide APRITFGGPSDSTGSN) is 0.002677.

RNAPRITFGGPSDSTG R5T (RNAPTITFGGPSDSTG): the “DMS PSSM value, R (position 5)” value (peptide RNAPRITFGGPSDSTG) worked out at 0.001368.

As for APRITFGGPSDSTGSN G8P (APRITFGPPSDSTGSN), the “DMS PSSM value, G (position 8)” value (peptide APRITFGGPSDSTGSN) is 0.001619.

Take “RNAPRITFGGPSDSTG G10E (RNAPRITFGEPSDSTG)”: for the setting “peptide RNAPRITFGGPSDSTG”, the “DMS PSSM value, G (position 10)” value amounted to 0.

For APRITFGGPSDSTGSN G8R (APRITFGRPSDSTGSN), the “DMS PSSM value, G (position 8)” value (peptide APRITFGGPSDSTGSN) was found to be 0.

As to RNAPRITFGGPSDSTG F8E (RNAPRITEGGPSDSTG), the “DMS PSSM value, F (position 8)” value (peptide RNAPRITFGGPSDSTG) was 0.

In the case of “RNAPRITFGGPSDSTG P11N (RNAPRITFGGNSDSTG)”, the “DMS PSSM value, P (position 11)” value (peptide RNAPRITFGGPSDSTG) is 0.

As for “APRITFGGPSDSTGSN G14S (APRITFGGPSDSTSSN)”, the “DMS PSSM value, G (position 14)” value (peptide APRITFGGPSDSTGSN) worked out at 0.004295.

In the case of “RNAPRITFGGPSDSTG S12W (RNAPRITFGGPWDSTG)”, for the setting “peptide RNAPRITFGGPSDSTG”, the “DMS PSSM value, S (position 12)” value came out at 0.

As to “RNAPRITFGGPSDSTG T15D (RNAPRITFGGPSDSDG)”, the “DMS PSSM value, T (position 15)” value (peptide RNAPRITFGGPSDSTG) is 0.

On to “RNAPRITFGGPSDSTG D13H (RNAPRITFGGPSHSTG)”, for which the “DMS PSSM value, D (position 13)” value (peptide RNAPRITFGGPSDSTG) worked out at 0.

As for APRITFGGPSDSTGSN T5R (APRIRFGGPSDSTGSN), where the note is “peptide APRITFGGPSDSTGSN”, the “DMS PSSM value, T (position 5)” value came out at 0.

Consider “APRITFGGPSDSTGSN T13Y (APRITFGGPSDSYGSN)”, for which the “DMS PSSM value, T (position 13)” value (peptide APRITFGGPSDSTGSN) came to 0.001423.

Take “APRITFGGPSDSTGSN D11V (APRITFGGPSVSTGSN)”: the “DMS PSSM value, D (position 11)” value (peptide APRITFGGPSDSTGSN) was determined as 0.02861.

Take “RNAPRITFGGPSDSTG G16R (RNAPRITFGGPSDSTR)”: under “peptide RNAPRITFGGPSDSTG”, the “DMS PSSM value, G (position 16)” value was found to be 0.

As to RNAPRITFGGPSDSTG I6F (RNAPRFTFGGPSDSTG), where the note is “peptide RNAPRITFGGPSDSTG”, the “DMS PSSM value, I (position 6)” value came out at 0.

For “APRITFGGPSDSTGSN S15T (APRITFGGPSDSTGTN)”, the “DMS PSSM value, S (position 15)” value (peptide APRITFGGPSDSTGSN) turned out to be 0.008335.

In the case of RNAPRITFGGPSDSTG G9H (RNAPRITFHGPSDSTG), the “DMS PSSM value, G (position 9)” value (peptide RNAPRITFGGPSDSTG) was 0.

As for RNAPRITFGGPSDSTG P4Y (RNAYRITFGGPSDSTG), where the note is “peptide RNAPRITFGGPSDSTG”, the “DMS PSSM value, P (position 4)” value came to 0.

For the sequence “APRITFGGPSDSTGSN S15E (APRITFGGPSDSTGEN)”, under “peptide APRITFGGPSDSTGSN”, the “DMS PSSM value, S (position 15)” value amounted to 0.0004817.
